# Assay results as given in patent US20070098649A1, “Method and composition for controlling oral pathogens” (priority 2004, published 2007).
# Counter-ions that a name gives are not always drawn. Like-named read-outs stand apart in the source and are kept apart here. Marks after values point to notes of the source that are not given here.
# Tests used:
# [1] = rat, in vivo, iv; cited from earlier work
# [2] = tested on: Streptococcus mutans; experiment: MIC microdilution assay; assay type: cell-based; conditions: Streptococcus mutans, S. mutans
# [3] = tested on: patients with heart conditions; conditions: human, in vivo; cited from earlier work
# [4] = tested on: mice; conditions: cited from earlier work; for LD50: mice
# [5] = tested on: Fusobacterium nucleatum; experiment: MIC microdilution assay; assay type: cell-based; conditions: Fusobacterium nucleatum, F. nucleatum
# [6] = tested on: Streptococcus gordonii; experiment: MIC microdilution assay; assay type: cell-based; conditions: Streptococcus gordonii, S. gordonii
# [7] = tested on: Streptococcus mutans; experiment: Combination determination (FIC, MIC in combination); assay type: cell-based; conditions: S. mutans
# Experimental: (§1) The alkaloids were tested in pair-wise combinations (fractional inhibitory concentrations, FIC) against all the bacteria to determine whether interactions were antagonistic (FIC>1), additive (0.5<FIC<1), or synergistic (FIC<0.5). The FIC was calculated by the following: (MIC Acombination/MIC Aalone)+(MIC Bcombination/MIC Balone). Where A represents compound 1 and B represents compound 2. […] In the case of A. actinomycetemcomitans and P. aeruginosa, CHX was used at 0.78 to 50 μg ml^−1. Berberine (B-CG and B-S) was used at concentrations 0.9 to 250 μg ml^−1. The antibacterial efficacy of berberine (1.95 to 500 μg ml^−1) was tested in combination against P. aeruginosa with CHX (0.78 to 50 μg ml^−1) (Sigma Chemicals) and the polymyxin antibiotic Col (0.04 to 25 μg ml^−1) (Sigma Chemicals). The plates were incubated for 24 hours.
# CHX was diluted from left to right at 10 to 0.08 μg ml^−1 ([…] 1 to 8), berberine was diluted from top to bottom at 250 to 0.09 μg ml^−1 ([…] 1 to 8). Column 9 was the cell control, column 10 was berberine alone (250 to 0.09 μg ml^−1); and column 11 was CHX alone (10 to 0.08 μg ml^−1). Row H was the solvent control (8% DMSO, H1 to H8). Column 12 was the media blank. The dilution assay was designed such that A1 contained the highest concentration of both agents (berberine 250 μg ml^−1 and CHX 10 μg ml^−1). The final concentration of berberine in wells A2 to A8 was […]. The FIC value was calculated from well C6. FIC was calculated by: (MIC Acombination/MIC Aalone)+(MIC Bcombination/MIC Balone).
# [8] = tested on: Fusobacterium nucleatum; experiment: as above; assay type: cell-based; conditions: F. nucleatum; berberine (B-CG) combined with CHX, Tet or Dox; MIC of the named agent in the combination
# Experimental: as §1
# [9] = tested on: Actinobacillus actinomycetemcomitans; experiment: as above; assay type: cell-based; conditions: A. actinomycetemcomitans grown under anaerobic conditions; berberine (B-CG) combined with CHX, Tet or Dox; MIC of the named agent in the combination
# Experimental: as §1
# [10] = tested on: Pseudomonas aeruginosa; experiment: as above; assay type: cell-based; conditions: P. aeruginosa; berberine combined with CHX or Col; MIC of the named agent in the combination
# Experimental: as §1
# [11] = tested on: Escherichia coli; experiment: as above; assay type: cell-based; conditions: E. coli; berberine (B-CG) combined with CHX, Tet or Dox; MIC of the named agent in the combination
# Experimental: as §1
# [12] = tested on: Streptococcus gordonii; experiment: as above; assay type: cell-based; conditions: S. gordonii; berberine (B-CG) combined with CHX, Tet or Dox; MIC of the named agent in the combination
# Experimental: as §1
# [13] = tested on: Porphymonas gingivalis; experiment: as above; assay type: cell-based; conditions: P. gingivalis; berberine (B-CG) combined with CHX, Tet or Dox; MIC of the named agent in the combination
# Experimental: as §1
# [14] = tested on: Staphylococcus aureus; experiment: as above; assay type: cell-based; conditions: S. aureus; berberine (B-CG) combined with CHX, Tet or Dox; MIC of the named agent in the combination
# Experimental: as §1
# [15] = tested on: rabbits; conditions: s.c.; cited from earlier work
# [16] = tested on: Staphylococcus aureus; experiment: MIC microdilution assay; assay type: cell-based; conditions: S. aureus, agent alone, read-out: MIC of the antimicrobial agents alone
# [17] = tested on: Pseudomonas aeruginosa; experiment: MIC microdilution assay; assay type: cell-based; conditions: Pseudomonas aeruginosa; P. aeruginosa; agent alone; read-out: MIC of the antimicrobial agents alone
# [18] = tested on: Porphymonas gingivalis; experiment: MIC microdilution assay; assay type: cell-based; conditions: Porphyromonas gingivalis, P. gingivalis
# [19] = tested on: Escherichia coli; experiment: MIC microdilution assay; assay type: cell-based; conditions: E. coli, agent alone, read-out: MIC of the antimicrobial agents alone
# [20] = in vivo, po; cited from earlier work
# [21] = tested on: Actinobacillus actinomycetemcomitans; experiment: MIC microdilution assay; assay type: cell-based; conditions: Aggregatibacter actinomycetemcomitans
# [22] = tested on: mice; conditions: 15 mg/kg i.p.; cited from earlier work
# [23] = tested on: rats; conditions: intravenous 0.1-6.0 mg/kg; cited from earlier work
# [24] = tested on: rats; conditions: single intraintestinal injection 10 mg/kg into the duodenum; cited from earlier work
# [25] = tested on: cats; conditions: intravenous 0.1-6.0 mg/kg; cited from earlier work
# [26] = tested on: dogs; conditions: intravenous 0.1-6.0 mg/kg; cited from earlier work
# [27] = tested on: albino rats; conditions: i.p. 50 mg/kg; cited from earlier work
# [28] = tested on: S. pyogenes; conditions: at sub-MIC levels; cited from earlier work
# [29] = tested on: dogs; conditions: dog, in vivo; cited from earlier work
# [30] = agent alone, read-out: MIC of the antimicrobial agents alone
compound,measurement,setting,value
"COc1ccc2cc3[n+](cc2c1OC)CCc1cc2c(cc1-3)OCO2 [Berberine, 5,6-dihydro-9,10-dimethoxybenzo[g]-1,3-benzodioxolo[5,6-a]quinolizinium]",Tissue distribution,[1],highest concentrations of berberine were found in the kidneys
same,MIC,[2]; [30],125 µg/mL
same,MIC,"[2]; Sm, read-out: MIC of Goldenseal Alkaloids Against Selected Oral Pathogens",125 µg/mL
same,Adverse effect in heart failure patients,[3],ventricular tachycardia in some subjects
same,LD50,[4]; oral,329 mg/kg
same,LD50,[4]; s.c.,18 mg/kg
same,LD dose,"[4]; mouse, in vivo, ip",greater than 500 mg/kg
same,MIC,[5]; [30],15.6 µg/mL
same,MIC,"[5]; Fn, read-out: MIC of Goldenseal Alkaloids Against Selected Oral Pathogens",15.6 µg/mL
same,MIC,[6]; [30],250 µg/mL
same,MIC,"[6]; Sg, read-out: MIC of Goldenseal Alkaloids Against Selected Oral Pathogens",250 µg/mL
same,MIC of the antimicrobial agents in combination,"[7]; berberine (B-CG) combined with CHX, Tet or Dox, MIC of the named agent in the combination",62.5 µg/mL
same,MIC alone used for the FIC,"[7]; same plate, 48 h",125 µg/mL
same,MIC in combination used for the FIC,"[7]; well C6, berberine (B-G) with CHX, 48 h",31.25 µg/mL
same,MIC of the antimicrobial agents in combination,[8],3.9 µg/mL
same,MIC of the antimicrobial agents in combination,[9],250 µg/mL
same,MIC of the antimicrobial agents in combination,[10],250** μg ml^−1
same,MIC of the antimicrobial agents in combination,[11],125 µg/mL
same,MIC of the antimicrobial agents in combination,[12],62.5 µg/mL
same,MIC of the antimicrobial agents in combination,[13],7.81 µg/mL
same,MIC of the antimicrobial agents in combination,[14],62.5 µg/mL
same,LD50,[15],100 mg/kg
same,MIC,[16],250 µg/mL
same,MIC,[17],> 500 µg/mL
same,MIC,[18]; [30],23.4 µg/mL
same,MIC,"[18]; Pg, read-out: MIC of Goldenseal Alkaloids Against Selected Oral Pathogens",15.6 µg/mL
same,MIC,[19],250 µg/mL
same,Further time to clear,[20],four
same,Time to reach peak concentrations in plasma,[20],four
same,MIC,"[21]; A. actinomycetemcomitans grown under anaerobic conditions, agent alone, read-out: MIC of the antimicrobial agents alone",> 500 µg/mL
same,MIC,"[21]; Aa, A. actinomycetemcomitans, read-out: MIC of Goldenseal Alkaloids Against Selected Oral Pathogens",> 500 µg/mL
COc1ccc2cc3[n+](cc2c1OC)CCc1cc2c(cc1-3)OCO2 [berberine sulfate],Protection from amphetamine toxicity,[22],no significant effect
same,Effect on blood pressure,[23],reduced the blood pressure
same,Effect on the volume or acidity,[24],no effect
same,Effect on blood pressure,[25],reduced the blood pressure
same,Effect on blood pressure,[26],reduced the blood pressure
same,Effect on rectal temperature,[27],reduced rectal temperature
same,Adherence of S. pyogenes to epithelial cells,[28],inhibited the adherence
same,Number of apomorphine-induced vomits,[29],significantly increased
